Reference: ChEMBL document CHEMBL1201862, “PubChem BioAssay data set” (2004)
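48-hour exposure; five concentrations; linearly interpolated endpoints. GI50: concentration for 50% inhibition of growth.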 Activity calls are given as the source filed them. Rule as the data show it: active = GI50 up to about 1.1 µM and inactive = higher.

Key:
Test in all cases: NCI anticancer screen, dose series, 48 h
786-0 = system: 786-0
A498 = system: A498
A549 = system: A549
ACHN = system: ACHN
BT-549 = system: BT-549
CAKI-1 = system: CAKI-1
CCRF-CEM = system: CCRF-CEM
COLO 205 = system: COLO 205
EKVX = system: EKVX
HCC 2998 = system: HCC 2998
HCT-116 = system: HCT-116
HCT-15 = system: HCT-15
HL-60 = system: HL-60
HOP-62 = system: HOP-62
HOP-92 = system: HOP-92
HT-29 = system: HT-29
Hs-578T = system: Hs-578T
IGROV-1 = system: IGROV-1
K562 = system: K562
KM12 = system: KM12
LOX IMVI = system: LOX IMVI
M14 = system: M14
MCF7 = system: MCF7
MDA-MB-231 = system: MDA-MB-231
MDA-MB-435 = system: MDA-MB-435
MDA-N = system: MDA-N
MOLT-4 = system: MOLT-4
Malme-3M = system: Malme-3M
NCI-H226 = system: NCI-H226
NCI-H23 = system: NCI-H23
NCI-H460 = system: NCI-H460
NCI-H522 = system: NCI-H522
NCI/ADR-RES = system: NCI/ADR-RES
OVCAR-3 = system: OVCAR-3
OVCAR-4 = system: OVCAR-4
OVCAR-5 = system: OVCAR-5
OVCAR-8 = system: OVCAR-8
PC-3 = system: PC-3
RPMI-8226 = system: RPMI-8226
RXF 393 = system: RXF 393
SF-268 = system: SF-268
SF-295 = system: SF-295
SK-MEL-28 = system: SK-MEL-28
SK-MEL-2 = system: SK-MEL-2
SK-MEL-5 = system: SK-MEL-5
SK-OV-3 = system: SK-OV-3
SN12C = system: SN12C
SNB-19 = system: SNB-19
SNB-75 = system: SNB-75
SR = system: SR
SW-620 = system: SW-620
TK-10 = system: TK-10
U-251 = system: U-251
UACC-257 = system: UACC-257
UACC-62 = system: UACC-62
UO-31 = system: UO-31

For `CC(=O)Nc1ccc2cc3c(nc2n1)c1cccnc1n3S(=O)(=O)c1ccccc1`, the GI50 (786-0) was 8.02 µM (inactive), the GI50 (A498) was > 100 µM (inactive) and the GI50 (A549) was > 100 µM (inactive). The GI50 (ACHN) was > 100 µM (inactive), the GI50 (BT-549) was > 100 µM (inactive) and the GI50 (CAKI-1) was > 100 µM (inactive). The GI50 (CCRF-CEM) was > 100 µM (inactive), the GI50 (COLO 205) was > 100 µM (inactive) and the GI50 (EKVX) was > 100 µM (inactive). The GI50 (HCC 2998) was > 100 µM (inactive), the GI50 (HCT-116) was 1.36 µM (inactive) and the GI50 (HCT-15) was over 100 µM. For the same molecule, the GI50 (HL-60) was > 100 µM (inactive), the GI50 (HOP-62) was > 100 µM (inactive) and the GI50 (HOP-92) was > 100 µM (inactive). The GI50 (HT-29) was > 100 µM (inactive), the GI50 (Hs-578T) was > 100 µM (inactive) and the GI50 (IGROV-1) was > 100 µM (inactive). For the same molecule, the GI50 (K562) was > 100 µM (inactive), the GI50 (KM12) was > 100 µM (inactive) and the GI50 (LOX IMVI) was 2.66 µM (inactive). For the same molecule, the GI50 (M14) was > 100 µM (inactive), the GI50 (MCF7) was > 100 µM (inactive) and the GI50 (MDA-MB-231) was > 100 µM (inactive). The GI50 (MDA-MB-435) was > 100 µM (inactive), the GI50 (MDA-N) was > 100 µM (inactive) and the GI50 (MOLT-4) was > 100 µM (inactive). For the same molecule, the GI50 (Malme-3M) was > 100 µM (inactive), the GI50 (NCI-H226) was > 100 µM (inactive) and the GI50 (NCI-H23) was 10.5 µM (inactive). The GI50 (NCI-H460) was > 100 µM (inactive), the GI50 (NCI-H522) was > 100 µM (inactive) and the GI50 (NCI/ADR-RES) was > 100 µM (inactive). The GI50 (OVCAR-3) was > 100 µM (inactive), the GI50 (OVCAR-4) was > 100 µM (inactive) and the GI50 (OVCAR-5) was > 100 µM (inactive). The GI50 (OVCAR-8) was > 100 µM (inactive), the GI50 (PC-3) was > 100 µM (inactive) and the GI50 (RPMI-8226) was 19.1 µM (inactive). For the same molecule, the GI50 (RXF 393) was > 100 µM (inactive), the GI50 (SF-268) was > 100 µM (inactive) and the GI50 (SF-295) was > 100 µM (inactive). The GI50 (SK-MEL-28) was > 100 µM (inactive), the GI50 (SK-MEL-2) was > 100 µM (inactive) and the GI50 (SK-MEL-5) was > 100 µM (inactive). The GI50 (SK-OV-3) was > 100 µM (inactive), the GI50 (SN12C) was > 100 µM (inactive) and the GI50 (SNB-19) was > 100 µM (inactive). For the same molecule, the GI50 (SNB-75) was 59.6 µM (inactive), the GI50 (SR) was 28.3 µM (inactive) and the GI50 (SW-620) was > 100 µM (inactive). The GI50 (TK-10) was > 100 µM (inactive), the GI50 (U-251) was > 100 µM (inactive) and the GI50 (UACC-257) was > 100 µM (inactive). The GI50 (UACC-62) was > 100 µM (inactive) and the GI50 (UO-31) was 0.195 µM (active).
